Measured values reported in ChEMBL document CHEMBL1130590, “Aryl sulfonamides as selective PDE4 inhibitors” (Bioorg Med Chem Lett, 1998).

How the values were obtained:
Phosphodiesterase 4 [1] = target: T1, Phosphodiesterase 4 (Homo sapiens, UniProt P27815+Q08499+Q07343+Q08493); assay: Inhibition of phosphodiesterase 4; type: protein assay
Phosphodiesterase 4 [2] = target: T1, Phosphodiesterase 4; assay: Binding activity towards Rolipram binding site of phosphodiesterase 4 at concentration 10 uM; type: protein assay
Phosphodiesterase 4 [3] = target: T1, Phosphodiesterase 4; assay: Inhibition of phosphodiesterase 4 at 20 uM; type: protein assay
Phosphodiesterase 4 [4] = target: T1, Phosphodiesterase 4; assay: Ratio of binding activity at catalytic site to Rolipram binding site of PDE4; type: protein assay
Phosphodiesterase 4 [5] = target: T1, Phosphodiesterase 4; assay: Binding activity towards Rolipram binding site of phosphodiesterase 4; type: protein assay
Phosphodiesterase 4 [6] = target: T1, Phosphodiesterase 4; assay: In vitro binding activity towards catalytic site of phosphodiesterase 4; type: protein assay
Phosphodiesterase 4 [7] = target: T1, Phosphodiesterase 4; assay: Inhibition of Rolipram binding to phosphodiesterase 4 at 20 uM; type: protein assay
[8] = target: cGMP-dependent 3',5'-cyclic phosphodiesterase (Homo sapiens) (UniProt O00408); assay: Inhibition of phosphodiesterase 2 at 200 uM
Chain of cGMP-dependent 3',5'-cyclic phosphodiesterase (Homo sapiens) (O00408 whole entry): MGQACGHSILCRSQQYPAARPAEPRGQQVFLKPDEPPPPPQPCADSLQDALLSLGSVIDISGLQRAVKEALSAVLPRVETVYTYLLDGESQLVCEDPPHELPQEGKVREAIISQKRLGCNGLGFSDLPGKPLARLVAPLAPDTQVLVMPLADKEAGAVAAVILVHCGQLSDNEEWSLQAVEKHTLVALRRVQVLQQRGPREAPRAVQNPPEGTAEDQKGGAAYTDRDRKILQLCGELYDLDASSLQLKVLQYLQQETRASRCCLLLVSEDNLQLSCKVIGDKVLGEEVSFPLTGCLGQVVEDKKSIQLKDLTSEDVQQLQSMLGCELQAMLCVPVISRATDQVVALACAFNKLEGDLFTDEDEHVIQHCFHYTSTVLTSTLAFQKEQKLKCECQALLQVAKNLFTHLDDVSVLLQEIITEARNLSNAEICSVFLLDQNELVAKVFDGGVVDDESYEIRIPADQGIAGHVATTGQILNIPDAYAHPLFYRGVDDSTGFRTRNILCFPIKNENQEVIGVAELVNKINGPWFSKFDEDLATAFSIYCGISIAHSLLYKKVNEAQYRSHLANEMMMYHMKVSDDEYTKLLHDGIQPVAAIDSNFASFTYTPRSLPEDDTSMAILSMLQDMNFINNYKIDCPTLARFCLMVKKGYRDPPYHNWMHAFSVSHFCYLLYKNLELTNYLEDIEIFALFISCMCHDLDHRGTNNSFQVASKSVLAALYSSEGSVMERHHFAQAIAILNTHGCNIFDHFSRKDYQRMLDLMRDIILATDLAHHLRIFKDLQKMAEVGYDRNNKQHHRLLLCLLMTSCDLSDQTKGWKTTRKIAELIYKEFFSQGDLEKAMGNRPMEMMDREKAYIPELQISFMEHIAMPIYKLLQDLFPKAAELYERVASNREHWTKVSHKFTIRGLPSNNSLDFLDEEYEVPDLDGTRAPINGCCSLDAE

Phosphodiesterase 1 [9] = target: T2, Phosphodiesterase 1 (Homo sapiens, UniProt P54750+Q01064+Q14123); assay: Inhibition of phosphodiesterase 1 at 200 uM; type: protein assay
[10] = target: Phosphodiesterase 3 (Homo sapiens) (UniProt Q14432+Q13370); assay: Inhibition of phosphodiesterase 3 at 200 uM; type: protein assay
[11] = target: cGMP-specific 3',5'-cyclic phosphodiesterase (Homo sapiens) (UniProt O76074); assay: Inhibition of phosphodiesterase 5 at 200 uM
Phosphodiesterase 4 [12] = target: T1, Phosphodiesterase 4; assay: Inhibition of Rolipram binding to phosphodiesterase 4 at 100 uM; type: protein assay
Phosphodiesterase 4 [13] = target: T1, Phosphodiesterase 4; assay: Inhibition of Rolipram binding to phosphodiesterase 4 at 1 uM; type: protein assay
Phosphodiesterase 4 [14] = target: T1, Phosphodiesterase 4; assay: Inhibition of phosphodiesterase 4 at 200 uM; type: protein assay
Phosphodiesterase 1 [15] = target: T2, Phosphodiesterase 1; assay: Inhibition of phosphodiesterase 1 at 20 uM; type: protein assay
[16] = target: cGMP-dependent 3',5'-cyclic phosphodiesterase (Homo sapiens) (UniProt O00408); settings: 200 uM
Phosphodiesterase 4 [17] = target: T1, Phosphodiesterase 4; assay: Inhibition of Rolipram binding to phosphodiesterase 4; type: protein assay; settings: concentration not given here

Structure (SMILES)	inhibition (Phosphodiesterase 4 [2]) [%]	Ratio (Phosphodiesterase 4 [4])	IC50 (Phosphodiesterase 4 [5]) [µM]	IC50 (Phosphodiesterase 4 [6]) [µM]	also measured
COc1ccc(S(=O)(=O)n2c(-c3ccccc3)cc3ccccc3c2=O)cc1OC	31	–	–	–	IC50 (Phosphodiesterase 4 [1]): 0.6 µM
COc1ccc(S(=O)(=O)NCCC#N)cc1OC	–	–	50	–	IC50 (Phosphodiesterase 4 [1]): 17.6 µM
COc1ccc(S(=O)(=O)NC2CCc3ccccc32)cc1OC (stereo unspecified)	12	< 0.6	–	6	–
COc1ccc(S(=O)(=O)N2CCc3ccccc32)cc1OC	18	< 0.43	–	4.3	–
COc1ccc(S(=O)(=O)n2ccc3ccccc3c2=O)cc1OC	–	–	–	–	IC50 (Phosphodiesterase 4 [7]): 4 µM; IC50 (Phosphodiesterase 4 [1]): 0.5 µM
COc1ccc(C(=O)N2CCCc3ccccc32)cc1OC	15	< 1	–	20	inhibition [8]: 21%; inhibition (Phosphodiesterase 1 [9]): 14%; inhibition [10]: 31%; inhibition [11]: 12%
COc1ccc(S(=O)(=O)N(CCC#N)CC2CCCO2)cc1OC (stereo unspecified)	–	0.17	112	19	–
COc1ccc(S(=O)(=O)NCc2cccnc2)cc1OC	–	–	–	–	inhibition (Phosphodiesterase 4 [12]): 41%; inhibition (Phosphodiesterase 4 [14]): 39%
COc1ccc(S(=O)(=O)NC2CCc3cc(Cl)ccc32)cc1OC (stereo unspecified)	12	< 0.5	–	5.2	–
COc1ccc(C(=O)NC2CCc3ccccc32)cc1OC (stereo unspecified)	–	3.7	3	11	inhibition [8]: 37%; inhibition (Phosphodiesterase 1 [9]): 14%; inhibition [10]: 53%; inhibition [11]: 24%
COc1ccc(S(=O)(=O)n2c(=O)cc(-c3ccccc3)c3ccccc32)cc1OC	14	–	–	–	IC50 (Phosphodiesterase 4 [1]): 0.5 µM
COc1ccc(C2CNC(=O)C2)cc1OC1CCCC1 (stereo unspecified) [ROLIPRAM]	–	–	–	–	IC50 (Phosphodiesterase 1 [15]): > 200 µM; inhibition [10]: 27%; inhibition [16]: 28%
COc1ccc2c(c1)C(NS(=O)(=O)c1ccc(OC)c(OC)c1)CC2 (stereo unspecified)	2	< 0.25	–	2.5	–
COc1ccc(S(=O)(=O)N(CCC#N)Cc2ccco2)cc1OC	37	< 1	–	10	–
COc1ccc(S(=O)(=O)n2c(-c3ccccc3)cc3ncccc3c2=O)cc1OC	20	–	–	–	IC50 (Phosphodiesterase 4 [1]): 1.5 µM
COc1ccc(S(=O)(=O)N(CCCC#N)Cc2ccco2)cc1OC	37	< 1	–	9	–

Further lines, with some results ahead:

inhibition (Phosphodiesterase 4 [2]) [%]	Ratio (Phosphodiesterase 4 [4])	IC50 (Phosphodiesterase 4 [5]) [µM]	IC50 (Phosphodiesterase 4 [6]) [µM]	Structure (SMILES)	also measured
36	> 1	–	–	COc1ccc(S(=O)(=O)N(CC#N)Cc2ccco2)cc1OC	inhibition (Phosphodiesterase 4 [3]): 30%
–	0.44	4.5	2	COc1ccc(S(=O)(=O)N(Cc2cccnc2)S(C)(=O)=O)cc1OC1CCCC1	–
20	< 0.9	–	9	COc1ccc(S(=O)(=O)N(Cc2cccnc2)C2CCc3ccccc32)cc1OC (stereo unspecified)	–
–	< 1	–	10	COC(=O)CN(Cc1ccco1)S(=O)(=O)c1ccc(OC)c(OC)c1	inhibition (Phosphodiesterase 4 [12]): 23%
–	> 1	10	–	COc1ccc(S(=O)(=O)N(CCC#N)Cc2ccco2)cc1OC1CCCC1	inhibition (Phosphodiesterase 4 [3]): 32%
–	< 1	–	1.5	COc1ccc(S(=O)(=O)N(Cc2cccnc2)S(C)(=O)=O)cc1OCCCCCc1ccccc1	inhibition (Phosphodiesterase 4 [13]): 18%
–	< 1	–	100	COc1ccc(S(=O)(=O)NC2CCCC2)cc1OC	inhibition (Phosphodiesterase 4 [12]): 19%
–	0.1	15	1.5	CCCN(Cc1ccco1)S(=O)(=O)c1ccc(OC)c(OC)c1	–
–	0.12	50	6	COc1ccc(S(=O)(=O)N(Cc2cccnc2)S(C)(=O)=O)cc1OC	–
–	0.69	35	24	COc1ccc(S(=O)(=O)N(CC(C)=O)Cc2ccco2)cc1OC	–
30	< 0.6	–	6.4	COc1ccc(S(=O)(=O)N(CCC#N)C2CCCc3ccccc32)cc1OC (stereo unspecified)	–
5	< 0.7	–	7.8	COc1ccc(S(=O)(=O)N(Cc2ccccc2)Cc2ccccn2)cc1OC	–
26	< 0.4	–	4.1	COc1ccc(S(=O)(=O)N(CCC#N)C2CCc3ccccc32)cc1OC (stereo unspecified)	–
–	0.13	24	3	COc1ccc(S(=O)(=O)N(Cc2cccnc2)S(=O)(=O)CCNS(=O)(=O)c2ccccc2)cc1OC	–
–	0.44	4.3	1.9	CCCN(Cc1ccc(C(=O)NC)cc1)S(=O)(=O)c1ccc(OC)c(OC)c1	–
12	< 0.5	–	5.3	COc1ccc(S(=O)(=O)N(Cc2ccccn2)C2CCc3ccccc32)cc1OC (stereo unspecified)	–
–	< 1	–	5	COc1ccc(S(=O)(=O)N(Cc2ccccc2)Cc2cccnc2)cc1OC	inhibition (Phosphodiesterase 4 [17]): 8%
